Legend:
Plasmodium falciparum [1] = assay: Antimalarial activity against chloroquine-resistant Plasmodium falciparum K1 assessed as reduction in parasite growth incubated for 72 hrs by SYBR Green staining based fluorescence analysis; assay type: functional, organism-based; settings: K1, 72 h
Plasmodium falciparum [2] = assay: Antimalarial activity against chloroquine-sensitive Plasmodium falciparum 3D7 assessed as reduction in parasite growth incubated for 72 hrs by SYBR Green staining based fluorescence analysis; assay type: functional, organism-based; settings: 3D7, 72 h
[3] = Cytotoxicity against African green monkey Vero cells assessed as reduction in cell viability incubated for 72 hrs by MTT assay; assay type: toxicity, cell-based; settings: chlorocebus sabaeus
Hemozoin [4] = assay: Inhibition of Beta-hematin formation in Plasmodium falciparum 3D7 by spectrophotometric analysis
Hemozoin [5] = assay: Inhibition of Beta-hematin formation in Plasmodium falciparum K1 by spectrophotometric analysis
Plasmodium falciparum [6] = assay: Antiplasmodial activity against chloroquine-sensitive Plasmodium falciparum NF54 by lactate dehydrogenase assay; assay type: functional, organism-based
[7] = Cytotoxicity against Chinese hamster CHO cells assessed as reduction in cell viability by MTT assay; assay type: toxicity, cell-based; settings: Chinese hamster (Cricetulus griseus)
Plasmodium falciparum [8] = assay: Antiplasmodial activity against Plasmodium falciparum 3D7 assessed as growth inhibition measured after 72 hrs by SYBR green dye based assay; assay type: functional, organism-based; settings: 3D7, 72 h
Plasmodium falciparum [9] = assay: Antiplasmodial activity against Plasmodium falciparum K1 assessed as growth inhibition measured after 72 hrs by SYBR green dye based assay; assay type: functional, organism-based; settings: K1, 72 h
[10] = Cytotoxicity against African green monkey Vero cells assessed as reduction in cell viability incubated for 24 hrs by fluorescence based analysis; assay type: toxicity; settings: African green monkey (Chlorocebus sabaeus)

SMILES | IC50 (Plasmodium falciparum [6]) | IC50 (Plasmodium falciparum [1]) | IC50 (Plasmodium falciparum [2]) | CC50 at 72 h [3] | IC50 [7] | further results
CN(CCCN1CCCC1)c1ccnc2cc(Cl)ccc12 | – | 110 nM | 190 nM | 80200 nM | – | –
Fc1ccc(-c2cncn2CCNc2ccnc3cc(Cl)ccc23)cc1 | – | – | – | – | – | IC50 (Hemozoin [4]): 5000 nM; IC50 (Hemozoin [5]): 3040 nM
CC(C)CC(CN1CCCC1)N(C)c1ccnc2cc(C(F)(F)F)ccc12 (configuration not stated) | – | 1600 nM | 1240 nM | 52000 nM | – | –
Clc1ccc2c(NCCn3cncc3-c3cccc4ccccc34)ccnc2c1 | – | – | – | – | – | IC50 (Hemozoin [4]): 5000 nM; IC50 (Hemozoin [5]): 920 nM
CCC(C)C(CN1CCN(CC)CC1)Nc1ccnc2cc(Cl)ccc12 (configuration not stated) | – | – | – | – | – | IC50 (Plasmodium falciparum [8]): 114 nM; IC50 (Plasmodium falciparum [9]): 502 nM
CSCCC(CN1CCN(c2ccccc2)CC1)Nc1ccnc2cc(Cl)ccc12 (configuration not stated) | – | – | – | – | – | IC50 (Plasmodium falciparum [8]): > 5000 nM; IC50 (Plasmodium falciparum [9]): > 5000 nM
CN(c1ccnc2cc(Cl)ccc12)C(Cc1ccccc1)CN1CCCCC1 (configuration not stated) | – | 490 nM | 280 nM | 69700 nM | – | –
O=C(/C=C/c1ccc2c(c1)OCO2)c1ccc(S(=O)(=O)NCCCNc2cncc3cc(Cl)ccc23)cc1 | 690 nM | – | – | – | 34100 nM | –
CCN(CC)CC(Cc1ccccc1)N(C)c1ccnc2cc(Cl)ccc12 (configuration not stated) | – | 330 nM | 210 nM | 79000 nM | – | –
CN(c1ccnc2cc(C(F)(F)F)ccc12)C(Cc1ccccc1)CN1CCCC1 (configuration not stated) | – | 1770 nM | 680 nM | 39200 nM | – | –
CC(C)CC(CN1CCOCC1)N(C)c1ccnc2cc(Cl)ccc12 (configuration not stated) | – | 1190 nM | 1160 nM | 50800 nM | – | –
CCN(CC)CC(CC(C)C)N(C)c1ccnc2cc(Cl)ccc12 (configuration not stated) | – | 540 nM | 230 nM | 60300 nM | – | –
CN(C)c1ccc(-c2cncn2CCNc2ccnc3cc(Cl)ccc23)cc1 | – | – | – | – | – | IC50 (Hemozoin [4]): 5000 nM; IC50 (Hemozoin [5]): 1090 nM
CC(C)CC(CN1CCCC1)N(C)c1ccnc2cc(Cl)ccc12 (configuration not stated) | – | 180 nM | 80 nM | 47000 nM | – | –
CN(CCCN1CCCC1)c1ccnc2cc(C(F)(F)F)ccc12 | – | 310 nM | 90 nM | 78200 nM | – | –
O=C1c2cccc(N3CCCCC3)c2C(=O)N1CCCCNc1ccnc2cc(Cl)ccc12 | – | – | – | – | – | IC50 at 24 h [10]: 54100 nM
CC(C)CC(CN1CCCCC1)N(C)c1ccnc2cc(C(F)(F)F)ccc12 (configuration not stated) | – | 2040 nM | 2000 nM | 42600 nM | – | –
CCN(CC)CC(Cc1ccccc1)N(C)c1ccnc2cc(C(F)(F)F)ccc12 (configuration not stated) | – | – | 1750 nM | – | – | –
Clc1ccc2c(NC(CN3CCN(Cc4ccccc4)CC3)n3ccc4ccccc43)ccnc2c1 (configuration not stated) | – | – | – | – | – | IC50 (Plasmodium falciparum [8]): 596 nM; IC50 (Plasmodium falciparum [9]): 529 nM
CN(CCCN1CCCCC1)c1ccnc2cc(Cl)ccc12 | – | 60 nM | 40 nM | 107000 nM | – | –
Cc1ccc(/C=C/C(=O)c2ccc(S(=O)(=O)NCCCNc3cncc4cc(Cl)ccc34)cc2)cc1 | 370 nM | – | – | – | 25100 nM | –
Clc1ccc2c(NCCn3cncc3-c3ccco3)ccnc2c1 | – | – | – | – | – | IC50 (Hemozoin [4]): 290 nM; IC50 (Hemozoin [5]): 970 nM
CCN1CCN(CC(CCSC)Nc2ccnc3cc(Cl)ccc23)CC1 (configuration not stated) | – | – | – | – | – | IC50 (Plasmodium falciparum [8]): 2660 nM; IC50 (Plasmodium falciparum [9]): > 5000 nM
Clc1ccc2c(NCCn3cncc3C3CCCCC3)ccnc2c1 | – | – | – | – | – | IC50 (Hemozoin [4]): 190 nM; IC50 (Hemozoin [5]): 520 nM
CN(c1ccnc2cc(Cl)ccc12)C(Cc1ccccc1)CN1CCCC1 (configuration not stated) | – | 100 nM | 60 nM | 57800 nM | – | –
CC(C)CC(CN1CCOCC1)N(C)c1ccnc2cc(C(F)(F)F)ccc12 (configuration not stated) | – | 2250 nM | 2720 nM | 68600 nM | – | –
Clc1ccc2c(NCCn3cncc3-c3ccc4ccccc4n3)ccnc2c1 | – | – | – | – | – | IC50 (Hemozoin [4]): 5000 nM; IC50 (Hemozoin [5]): 1330 nM

The next lines start with results.

IC50 (Plasmodium falciparum [6]) | SMILES | IC50 (Plasmodium falciparum [1]) | IC50 (Plasmodium falciparum [2]) | CC50 at 72 h [3] | IC50 [7] | further results
320 nM | COc1ccc(/C=C/C(=O)c2ccc(S(=O)(=O)NCCCNc3cncc4cc(Cl)ccc34)cc2)cc1OC | – | – | – | 43400 nM | –
100 nM | O=C(/C=C/c1ccccc1Br)c1ccc(S(=O)(=O)NCCCNc2cncc3cc(Cl)ccc23)cc1 | – | – | – | 43200 nM | –
330 nM | COc1ccc(/C=C/C(=O)c2ccc(S(=O)(=O)NCCNc3cncc4cc(Cl)ccc34)cc2)cc1OC | – | – | – | 45100 nM | –
790 nM | O=C(/C=C/c1cc(F)ccc1F)c1ccc(S(=O)(=O)NCCCNc2cncc3cc(Cl)ccc23)cc1 | – | – | – | 43700 nM | –
510 nM | O=C(/C=C/c1ccc(OC(F)(F)F)cc1)c1ccc(S(=O)(=O)NCCCNc2cncc3cc(Cl)ccc23)cc1 | – | – | – | 44000 nM | –
1670 nM | O=C(/C=C/c1ccccc1)c1ccc(S(=O)(=O)NCCCNc2cncc3cc(Cl)ccc23)cc1 | – | – | – | > 50000 nM | –
110 nM | COc1ccc(/C=C/C(=O)c2ccc(S(=O)(=O)NCCCNc3cncc4cc(Cl)ccc34)cc2)cc1 | – | – | – | 43300 nM | –
570 nM | O=C(/C=C/c1ccc(F)cc1)c1ccc(S(=O)(=O)NCCNc2cncc3cc(Cl)ccc23)cc1 | – | – | – | 14500 nM | –
2580 nM | O=C(/C=C/c1ccc(F)c(F)c1)c1ccc(S(=O)(=O)NCCCNc2cncc3cc(Cl)ccc23)cc1 | – | – | – | > 300000 nM | –
540 nM | O=C(/C=C/c1c(F)cccc1F)c1ccc(S(=O)(=O)NCCCNc2cncc3cc(Cl)ccc23)cc1 | – | – | – | 27600 nM | –
280 nM | O=C(/C=C/c1ccc(F)cc1)c1ccc(S(=O)(=O)NCCCNc2cncc3cc(Cl)ccc23)cc1 | – | – | – | 14600 nM | –
